In series [1] the target is T1, DOR (Homo sapiens, UniProt P41143). The class given is cell-based. The conditions noted are these: for potency at DOR: BRET based Gi-1 assay / G-protein pathways; for selectivity for DOR over other opioid subtypes: DOR vs KOR and MOR, BRET based Gi-1 assays; for G-protein bias: G-protein vs arrestin at DOR.
The target of another series is KOR (Homo sapiens, UniProt P41145). As to the kind of experiment: BRET based Gi-1 assay, activation of KOR. Format: cell-based.
In series [2] the target is T1, DOR. The class given is cell-based. The conditions noted are these: compared to known DOR orthosteric site binders.
For series [3], the system named is C57BL/6J mice. Briefly: Seizure assay. The conditions noted are these: for seizure occurrence: compared with known DOR agonists; for seizures in seizure assay: C57BL/6J mice, sc injection, C6 quino at analgesic doses.
Series [4] in a line: In vivo analgesia / oral activity in chronic pain models. The conditions noted are these: for Orally active: oral.
The next series can be described thus: PK assays. Format: in vivo.
The next series has as its system sciatic nerve ligation. As to the kind of experiment: Mechanical allodynia induced by sciatic nerve ligation. The class given is in vivo. As to the method: Mechanical allodynia induced by sciatic nerve ligation was reduced between 20 and 140 minutes after treatment with 30 mg/kg C6-quino sc. Supraspinal (icv) antinociception mediated by C6 quino is DOR dependent, yet C6-quino produced no seizures (B, top).

Series [5] deals with T1, DOR. The class given is cell-based. The conditions noted are these: compared to DPDPE and C5 quino.
In series [6] the target is T1, DOR. The class given is cell-based. The following applies: compared to DPDPE and C5 quino. The source holds these as a separate data set.
For series [7], the target named is T2, DOR (Mus musculus, UniProt P32300).
T2 construct: from tissue; host or cells: living animal, central nervous system (icv dosing)
The class given is in vivo.

For series [8], the system named is C57BL/6J mice. Briefly: Locomotor effects. The following applies: sc injection, C6-quino 30 mg/kg sc.
The next series can be described thus: Microsomal stability. The conditions noted are these: microsomes.
The test system of series [9] is C57BL/6J mice. As to the kind of experiment: Respiratory depression. The following applies: sc injection, morphine 10 mg/kg.
The subject of series [10] is C57BL/6J mice. As to the kind of experiment: Rotarod assay (motor coordination). The conditions noted are these: sc injection.

Bounds are passed on as bounds.

T1 sequence (P41143 whole entry): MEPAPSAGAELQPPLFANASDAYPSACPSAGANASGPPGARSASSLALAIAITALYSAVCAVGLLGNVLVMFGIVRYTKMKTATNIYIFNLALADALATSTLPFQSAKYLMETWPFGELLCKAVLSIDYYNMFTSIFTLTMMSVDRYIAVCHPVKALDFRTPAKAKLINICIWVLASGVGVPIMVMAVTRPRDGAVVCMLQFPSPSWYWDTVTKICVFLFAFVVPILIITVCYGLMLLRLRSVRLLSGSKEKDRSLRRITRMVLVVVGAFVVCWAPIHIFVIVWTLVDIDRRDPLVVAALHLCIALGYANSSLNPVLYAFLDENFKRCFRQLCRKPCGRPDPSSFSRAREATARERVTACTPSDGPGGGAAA
KOR, sequence (P41145 whole entry): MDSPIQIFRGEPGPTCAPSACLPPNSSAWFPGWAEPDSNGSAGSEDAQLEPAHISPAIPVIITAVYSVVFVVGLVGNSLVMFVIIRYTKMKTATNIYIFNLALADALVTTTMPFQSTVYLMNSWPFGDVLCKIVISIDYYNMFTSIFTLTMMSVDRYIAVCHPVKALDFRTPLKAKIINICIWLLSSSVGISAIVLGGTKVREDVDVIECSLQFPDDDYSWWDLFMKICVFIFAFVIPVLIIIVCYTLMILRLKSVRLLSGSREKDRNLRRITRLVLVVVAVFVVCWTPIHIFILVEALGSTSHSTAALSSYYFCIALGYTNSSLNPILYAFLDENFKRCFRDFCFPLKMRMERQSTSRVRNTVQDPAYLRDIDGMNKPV
T2 sequence (P32300 whole entry): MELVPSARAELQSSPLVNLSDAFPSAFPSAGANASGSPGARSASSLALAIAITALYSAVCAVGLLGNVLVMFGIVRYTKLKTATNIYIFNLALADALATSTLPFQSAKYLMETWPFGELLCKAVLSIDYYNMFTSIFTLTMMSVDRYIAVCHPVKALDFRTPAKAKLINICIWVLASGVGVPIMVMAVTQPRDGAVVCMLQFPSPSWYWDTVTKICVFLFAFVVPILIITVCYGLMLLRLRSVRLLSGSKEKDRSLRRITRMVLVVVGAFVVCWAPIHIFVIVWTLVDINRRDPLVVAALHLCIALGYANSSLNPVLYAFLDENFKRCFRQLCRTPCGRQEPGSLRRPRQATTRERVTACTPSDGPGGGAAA

For the molecule `N=C(N)NCCCCCN1CC[C@]23c4c5ccc(O)c4O[C@H]2c2[nH]c4ccccc4c2C[C@@]3(O)[C@H]1C5` [C5-Indole], the “potency at DOR” value at DOR [1] is recorded as “high potency”. On KOR, the “activity at KOR” value was “retained activity”.
As to `N=C(N)NCCCCCN1CCC23c4c5ccc(O)c4O[C@H]2c2nc4ccccc4cc2C[C@@]3(O)C1C5` (stereo partly shown) [C5-Quino], the “functional profile (potency and efficacy) across DOR G protein subtypes and βarrestin-1 and 2” value on DOR [2] is on record as “unique functional profiling”. For the same molecule, on DOR [1], the “potency at DOR” value is “high potency” and the “selectivity for DOR over other opioid subtypes” value is given as “selectivity for DOR over other opioid subtypes”.
Turning to `N=C(N)NCCCCCCN1CCC23c4c5ccc(O)c4O[C@H]2c2[nH]c4ccccc4c2C[C@@]3(O)C1C5` (stereo partly shown) [C6-Indole], the seizure occurrence entry in the series on C57BL/6J mice [3] was “do not cause seizures”. Moreover, at DOR [1], the “potency at DOR” value is recorded as “high potency” and the G-protein bias result is listed as “G-protein biased”. In addition, the “activity at KOR” value on KOR was “retained activity”. In [4], the “efficacy in chronic pain models” value is “effective in chronic pain models” and the Orally active result is on record as “orally active”.
Regarding `N=C(N)NCCCCCCN1CCC23c4c5ccc(O)c4O[C@H]2c2nc4ccccc4cc2C[C@@]3(O)C1C5` (stereo partly shown) [C6-Quino], in the series “PK assays” (PK assays), the brain penetration entry is “good” and the systemic availability entry is on record as “good”. Also, in the series “PK assays” (in vivo), the half-life was 2 h. In addition, in the series with C57BL/6J mice [3], the “seizures in seizure assay” value is listed as “no seizures” and the seizure occurrence entry was “do not cause seizures”. The seizures result in the series with C57BL/6J mice [3] (FIG. 4B top) is on record as “no seizures”. Further, the “functional profile (potency and efficacy) across DOR G protein subtypes and βarrestin-1 and 2” value on DOR [2] was “unique functional profiling”. Besides, in the series on sciatic nerve ligation (antagonist NTB), the “anti-allodynic effect in presence of NTB” value is on record as “antagonized by NTB”. Moreover, in the series with sciatic nerve ligation (sciatic nerve ligation, mechanical allodynia), the anti-allodynic activity entry was “dose- and time-dependent anti-allodynic activity similar to gabapentin”. In addition, at DOR [1], the “potency at DOR” value is listed as “high potency”, the “selectivity for DOR over other opioid subtypes” value was “selectivity for DOR over other opioid subtypes” and the G-protein bias entry is given as “G-protein biased”. Further, the “intrinsic efficacy at DOR, G-protein” value on DOR [1] (compared to DPDPE and C5 quino) was “lower intrinsic efficacy”. In addition, on DOR [5], the “intrinsic efficacy at DOR, βarrestin-2” value is “lower intrinsic efficacy”. Moreover, at DOR [6], the “intrinsic efficacy at DOR, βarrestin-1” value is “lower intrinsic efficacy”. For the same molecule, the “supraspinal (icv) antinociception, receptor dependence” value at DOR [7] was “DOR dependent”. Moreover, in series [4], the “efficacy in chronic pain models” value is on record as “effective in chronic pain models” and the Orally active entry is “orally active”. The Orally active result in series [4] (listed as 6C-Quino) was “YES”. For the same molecule, in the series on C57BL/6J mice [8], the locomotor activity result was “did not significantly differ from the vehicle at any time point”. Besides, the half-life in “Microsomal stability” is more than 2 h. The respiratory depression result with C57BL/6J mice [9] was “did not cause significant respiratory depression”. For the same molecule, in the series on C57BL/6J mice [10], the “sedation in rotarod assay” value was “no propensity to cause sedation”.
For `CN1CC[C@]23c4c5ccc(O)c4O[C@H]2[C@@H](O)C=C[C@H]3[C@H]1C5` [Morphine, reference compound], the locomotor activity entry with C57BL/6J mice [8] is recorded as “hyperlocomotion”. Further, the respiratory depression entry with C57BL/6J mice [9] is reported as “caused respiratory depression”.
As for `C=CCN1C[C@H](C)N([C@H](c2ccc(C(=O)N(CC)CC)cc2)c2cccc(OC)c2)C[C@H]1C` [SNC80, reference compound], the “seizures in seizure assay” value in the series with C57BL/6J mice [3] is on record as “caused seizures”.

The record behind these values is patent US20250376477A1, “ANALGESIC DELTA OPIOID RECEPTOR BITOPIC LIGANDS” (UNIVERSITY OF SOUTHERN CALIFORNIA, priority 2022, published 2025).
